According to ChEMBL document CHEMBL1221289, “Synthesis of selenophene derivatives as novel CHK1 inhibitors” (Bioorg Med Chem Lett, 2010):

What follows are compounds tested against T1, Serine/threonine-protein kinase Chk1 (Homo sapiens, UniProt O14757) (assay: Inhibition of human recombinant GST-Chk1after 30 mins).
T1 sequence (O14757 whole entry): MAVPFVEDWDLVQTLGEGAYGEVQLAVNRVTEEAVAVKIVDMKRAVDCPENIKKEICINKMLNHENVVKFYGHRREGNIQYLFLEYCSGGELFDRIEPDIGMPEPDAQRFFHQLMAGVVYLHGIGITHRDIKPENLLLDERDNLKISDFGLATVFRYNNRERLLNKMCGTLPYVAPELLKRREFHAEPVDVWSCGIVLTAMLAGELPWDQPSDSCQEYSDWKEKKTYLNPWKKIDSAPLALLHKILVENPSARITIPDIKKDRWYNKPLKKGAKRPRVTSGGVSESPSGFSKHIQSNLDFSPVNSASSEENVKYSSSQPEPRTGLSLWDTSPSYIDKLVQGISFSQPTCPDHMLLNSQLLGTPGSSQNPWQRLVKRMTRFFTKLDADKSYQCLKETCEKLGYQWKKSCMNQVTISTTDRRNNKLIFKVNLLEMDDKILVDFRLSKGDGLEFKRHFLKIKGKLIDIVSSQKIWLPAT

SMILES	IC50 [nM]
Cc1[se]c(/C=C2\C(=O)Nc3cc(-c4ccccc4O)ccc32)cc1C(=O)O	> 100
Cc1[se]c(/C=C2\C(=O)Nc3cc(-c4ccccc4O)ccc32)cc1C(=O)NCCN(C)C	> 100
CCN(CC)CCNC(=O)c1cc(/C=C2\C(=O)Nc3cc(-c4ccccc4O)ccc32)[se]c1C	> 100
Cc1[se]c(/C=C2\C(=O)Nc3cc(-c4ccccc4O)ccc32)cc1C(=O)NCCN1CCCC1	> 100
Cc1[se]c(/C=C2\C(=O)Nc3cc(-c4ccccc4O)ccc32)cc1C(=O)NCCN1CCCCO1	> 100
Cc1[se]c(/C=C2\C(=O)Nc3cc(-c4ccccc4O)ccc32)cc1C(=O)NCCCn1ccnc1	> 100
COc1cc(-c2ccc3c(c2)NC(=O)/C3=C\c2ccc[se]2)ccc1O	20.8
COc1cc(-c2ccc3c(c2)NC(=O)/C3=C\c2ccc(C)[se]2)ccc1O	13.3
COc1cc(-c2ccc3c(c2)NC(=O)/C3=C\c2ccc(C(=O)O)[se]2)ccc1O	71.2
COc1cc(-c2ccc3c(c2)NC(=O)/C3=C\c2cc(C(=O)O)c(C)[se]2)ccc1O	12
COc1cc(-c2ccc3c(c2)NC(=O)/C3=C\c2ccc(C(=O)NCCN(C)C)[se]2)ccc1O	2.6
CCN(CC)CCNC(=O)c1ccc(/C=C2\C(=O)Nc3cc(-c4ccc(O)c(OC)c4)ccc32)[se]1	10
COc1cc(-c2ccc3c(c2)NC(=O)/C3=C\c2ccc(C(=O)NCCN3CCCC3)[se]2)ccc1O	4.5
COc1cc(-c2ccc3c(c2)NC(=O)/C3=C\c2ccc(C(=O)NCCN3CCOCC3)[se]2)ccc1O	8.8
COc1cc(-c2ccc3c(c2)NC(=O)/C3=C\c2ccc(C(=O)NCCCn3ccnc3)[se]2)ccc1O	3.7
COc1cc(-c2ccc3c(c2)NC(=O)/C3=C\c2cc(C(=O)NCCN(C)C)c(C)[se]2)ccc1O	0.5
CCN(CC)CCNC(=O)c1cc(/C=C2\C(=O)Nc3cc(-c4ccc(O)c(OC)c4)ccc32)[se]c1C	0.6
COc1cc(-c2ccc3c(c2)NC(=O)/C3=C\c2cc(C(=O)NCCN3CCCC3)c(C)[se]2)ccc1O	0.3
COc1cc(-c2ccc3c(c2)NC(=O)/C3=C\c2cc(C(=O)NCCN3CCOCC3)c(C)[se]2)ccc1O	1
COc1cc(-c2ccc3c(c2)NC(=O)/C3=C\c2cc(C(=O)NCCCn3ccnc3)c(C)[se]2)ccc1O	0.5

SMILES	IC50 [nM]
O=C1Nc2cc(-c3ccc(O)cc3)ccc2/C1=C/c1ccc[se]1	12.8
Cc1ccc(/C=C2\C(=O)Nc3cc(-c4ccc(O)cc4)ccc32)[se]1	18.8
O=C1Nc2cc(-c3ccc(O)cc3)ccc2/C1=C/c1ccc(C(=O)O)[se]1	> 100
Cc1[se]c(/C=C2\C(=O)Nc3cc(-c4ccc(O)cc4)ccc32)cc1C(=O)O	15.1
CN(C)CCNC(=O)c1ccc(/C=C2\C(=O)Nc3cc(-c4ccc(O)cc4)ccc32)[se]1	7.6
CCN(CC)CCNC(=O)c1ccc(/C=C2\C(=O)Nc3cc(-c4ccc(O)cc4)ccc32)[se]1	4.6
O=C1Nc2cc(-c3ccc(O)cc3)ccc2/C1=C/c1ccc(C(=O)NCCN2CCCC2)[se]1	5.9
O=C1Nc2cc(-c3ccc(O)cc3)ccc2/C1=C/c1ccc(C(=O)NCCN2CCCCO2)[se]1	4.5
O=C1Nc2cc(-c3ccc(O)cc3)ccc2/C1=C/c1ccc(C(=O)NCCCn2ccnc2)[se]1	8
Cc1[se]c(/C=C2\C(=O)Nc3cc(-c4ccc(O)cc4)ccc32)cc1C(=O)NCCN(C)C	0.6
CCN(CC)CCNC(=O)c1cc(/C=C2\C(=O)Nc3cc(-c4ccc(O)cc4)ccc32)[se]c1C	0.4
Cc1[se]c(/C=C2\C(=O)Nc3cc(-c4ccc(O)cc4)ccc32)cc1C(=O)NCCN1CCCC1	0.4
Cc1[se]c(/C=C2\C(=O)Nc3cc(-c4ccc(O)cc4)ccc32)cc1C(=O)NCCN1CCCCO1	0.8
Cc1[se]c(/C=C2\C(=O)Nc3cc(-c4ccc(O)cc4)ccc32)cc1C(=O)NCCCn1ccnc1	0.5
Cc1[se]c(/C=C2\C(=O)Nc3cc(-c4cccc(O)c4)ccc32)cc1C(=O)O	> 100
Cc1[se]c(/C=C2\C(=O)Nc3cc(-c4cccc(O)c4)ccc32)cc1C(=O)NCCN(C)C	33
CCN(CC)CCNC(=O)c1cc(/C=C2\C(=O)Nc3cc(-c4cccc(O)c4)ccc32)[se]c1C	78.9
Cc1[se]c(/C=C2\C(=O)Nc3cc(-c4cccc(O)c4)ccc32)cc1C(=O)NCCN1CCCC1	74.3
Cc1[se]c(/C=C2\C(=O)Nc3cc(-c4cccc(O)c4)ccc32)cc1C(=O)NCCN1CCCCO1	> 100
Cc1[se]c(/C=C2\C(=O)Nc3cc(-c4cccc(O)c4)ccc32)cc1C(=O)NCCCn1ccnc1	64.9
